Source: US11878978B1, “Pyrrolo[2,3-c]quinoline compounds as CK2 inhibitors” (KING FAISAL UNIVERSITY, priority 2023, dated 2024)

What was measured:
MCF7 (breast) = assay: In vitro cytotoxic activity assay (MTT), MCF7; assay type: cell-based; settings: Homo sapiens; MCF7 (breast) cells, exposed for 96 hours; read-out: IC50, concentration of compound eliciting a 50% inhibition of cell proliferation
Procedure: (§1) Compounds 1-12 were screened for their in vitro cytotoxic activity utilizing a 3-(4,5-dimethyl-thiazol-2-yl)-2,5-diphenyltetrazolium bromide (MTT) assay against selected cancer human cell lines consisting of PC3 (prostate), HCT116 (colon), A375 (melanoma), H1299 (lung), MIAPaCa-2 (pancreas), HL60 (leukemia), MCF7 (breast), MDA-MB-231 (breast) (T. Mosmann, J. Immunol. Meth., 1983, 65, 55-63). The cells were cultured at 37° C. in RMPI1640 medium supplemented with 10% fetal bovine serum, 50 IU/mL penicillin, and 50 μg/mL streptomycin in a 5% CO2 incubator. All cells were sub-cultured 3 times/week by trypsinisation. Viable cells were seeded and allowed to adhere for 12 h before a test drug was added in 96-well plates at an initial density of 1.0×10^5 cells/mL. Tumour cell lines were separately exposed to various concentrations of the tested compounds followed by incubation at a temperature of 37° C. during 96 h inside a medium of fresh RMPI 1640. Cells were subsequently incubated at 37° C. using MTT at 0.5 mg/mL during 4 h. After removal of supernatant, formazan crystals were dissolved in isopropanol and the optical density was measured at 570 nm. CX-4945 was used as a positive control.

A375 (melanoma) = assay: In vitro cytotoxic activity assay (MTT), A375; assay type: cell-based; settings: Homo sapiens, A-375; A375 (melanoma) cells, exposed for 96 hours; read-out: IC50, concentration of compound eliciting a 50% inhibition of cell proliferation
Procedure: as §1

H1299 (lung) = assay: In vitro cytotoxic activity assay (MTT), H1299; assay type: cell-based; settings: Homo sapiens, NCI-H1299; H1299 (lung) cells, exposed for 96 hours; read-out: IC50, concentration of compound eliciting a 50% inhibition of cell proliferation
Procedure: as §1

PC3 (prostate) = assay: In vitro cytotoxic activity assay (MTT), PC3; assay type: cell-based; settings: Homo sapiens, Prostate cell; PC3 (prostate) cells, exposed for 96 hours; read-out: IC50, concentration of compound eliciting a 50% inhibition of cell proliferation
Procedure: as §1

recombinant human CK2 = target: T1, recombinant human CK2 (Homo sapiens, UniProt P68400); assay: CK2 Kinase Assay (33P-ATP, substrate peptide RRRDDDSDDD); assay type: biochemical; settings: final ATP concentration 15 μM, 10 min at 30° C., eight concentrations; read-out: protein kinase CK2 IC50
T1 construct: purchased Millipore
T1 sequence (P68400 whole entry): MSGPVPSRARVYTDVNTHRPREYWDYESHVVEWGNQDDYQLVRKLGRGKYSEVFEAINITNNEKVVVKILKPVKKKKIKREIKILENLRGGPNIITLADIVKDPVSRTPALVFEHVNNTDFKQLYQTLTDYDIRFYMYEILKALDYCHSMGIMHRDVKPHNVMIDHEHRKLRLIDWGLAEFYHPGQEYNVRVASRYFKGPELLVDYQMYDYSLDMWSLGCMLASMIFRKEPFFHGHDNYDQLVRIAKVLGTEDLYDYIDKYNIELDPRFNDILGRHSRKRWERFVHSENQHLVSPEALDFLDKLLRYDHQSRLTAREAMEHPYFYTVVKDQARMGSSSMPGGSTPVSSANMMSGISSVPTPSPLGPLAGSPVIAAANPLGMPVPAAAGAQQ
T1 sequence (P67870 whole entry partner): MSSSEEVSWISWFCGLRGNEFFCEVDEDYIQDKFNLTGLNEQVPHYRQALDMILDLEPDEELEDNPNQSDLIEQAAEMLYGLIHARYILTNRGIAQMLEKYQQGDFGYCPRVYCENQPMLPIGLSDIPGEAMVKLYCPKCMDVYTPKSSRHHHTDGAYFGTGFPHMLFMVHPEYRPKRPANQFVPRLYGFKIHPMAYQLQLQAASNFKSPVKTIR
Procedure: CK2 Kinase Assay was conducted using the protocol as described in Pierre F. et al; J. Med. Chem. 2011, 54, 635-654. The tested compounds in aqueous solution were added at a volume of 10 μL to a reaction mixture comprising 10 μL of assay dilution buffer (ADB; 20 mM MOPS, pH 7.2, 25 mM β-glycerol phosphate, 5 mM EGTA, 1 mM sodium orthovanadate, and 1 mM dithiothreitol), 10 μL of substrate peptide (RRRDDDSDDD, dissolved in ADB at a concentration of 1 mM), 10 μL of recombinant human CK2 (RROP-holoenzyme, 25 ng dissolved in ADB; Millipore). Reactions were initiated by the addition of 10 μL of ATP solution (90% 75 mMMgCl2, 75 μM ATP (final ATP concentration:15 μM) dissolved in ADB; 10% [γ-33P] ATP (stock 1 mCi/100 μL; 3000 Ci/mmol (Perkin-Elmer) and maintained for 10 min at 30° C. The reactions were quenched with 100 μL of 0.75% phosphoric acid and then transferred to and filtered through a phosphor cellulose filter plate (Millipore). After washing each well five times with 0.75% phosphoric acid, the plate was dried under vacuum for 5 min and, following the addition of 15 μL of scintillation fluid to each well, the residual radioactivity was measured using a Wallac luminescence counter. The IC50 values were derived from eight concentrations of test inhibitors.

MDA-MB-231 (breast) = assay: In vitro cytotoxic activity assay (MTT), MDA-MB-231; assay type: cell-based; settings: Homo sapiens; MDA-MB-231 (breast) cells, exposed for 96 hours; read-out: IC50, concentration of compound eliciting a 50% inhibition of cell proliferation
Procedure: as §1

MIAPaCa-2 (pancreas) = assay: In vitro cytotoxic activity assay (MTT), MIAPaCa-2; assay type: cell-based; settings: Homo sapiens, MIA PaCa-2; MIAPaCa-2 (pancreas) cells, exposed for 96 hours; read-out: IC50, concentration of compound eliciting a 50% inhibition of cell proliferation
Procedure: as §1

HCT116 (colon) = assay: In vitro cytotoxic activity assay (MTT), HCT116; assay type: cell-based; settings: Homo sapiens, HCT-116; HCT116 (colon) cells, exposed for 96 hours; read-out: IC50, concentration of compound eliciting a 50% inhibition of cell proliferation
Procedure: as §1

HL60 (leukemia) = assay: In vitro cytotoxic activity assay (MTT), HL60; assay type: cell-based; settings: Homo sapiens, HL-60; HL60 (leukemia) cells, exposed for 96 hours; read-out: IC50, concentration of compound eliciting a 50% inhibition of cell proliferation
Procedure: as §1

IC50 (recombinant human CK2): 35 nM
SMILES: O=C(O)c1ccc2c(c1)nc(Nc1cccc(Cl)c1)c1[nH]cc(C(=O)O)c12 [Compound 1, 4-((3-chlorophenyl)amino)-3H-pyrrolo[2,3-c]quinoline-1,7-dicarboxylic acid]
IC50 (MCF7 (breast)): 6200 nM
IC50 (A375 (melanoma)): 2200 nM
IC50 (H1299 (lung)): 1900 nM
IC50 (PC3 (prostate)): 1300 nM
IC50 (MDA-MB-231 (breast)): 4600 nM
IC50 (MIAPaCa-2 (pancreas)): 1400 nM
IC50 (HCT116 (colon)): 1700 nM
IC50 (HL60 (leukemia)): 3100 nM
